Test results taken from publication PMC7181634, “Enhanced succinic acid production by Mannheimia employing optimal malate dehydrogenase” (Nature Communications, 2020).

What was measured:
MsMDH = target: T1, MsMDH ([Mannheimia] succiniciproducens, UniProt Q65T37); assay: NADH oxidation at […] nm; modified Briggs-Haldane fit; assay type: biochemical; conditions: pH 7.0, 0.1 M Tris-HCl, NADH co-substrate, room temperature; uncompetitive substrate inhibition
T1 construct: gene mdh; full length, C-terminal 6xHis (pET30a), expressed in E. coli BL21(DE3), Ni-NTA, ion exchange and size exclusion
T1 sequence (Q65T37 1-312): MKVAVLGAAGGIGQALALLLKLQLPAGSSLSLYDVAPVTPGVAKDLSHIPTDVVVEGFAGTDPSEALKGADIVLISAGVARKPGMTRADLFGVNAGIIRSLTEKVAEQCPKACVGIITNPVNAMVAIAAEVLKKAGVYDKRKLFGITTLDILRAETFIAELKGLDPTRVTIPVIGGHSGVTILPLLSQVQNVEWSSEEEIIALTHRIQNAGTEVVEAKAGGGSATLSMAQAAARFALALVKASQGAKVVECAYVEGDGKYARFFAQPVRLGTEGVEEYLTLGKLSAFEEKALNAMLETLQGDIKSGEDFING

CgMDH = target: T2, CgMDH (Corynebacterium glutamicum, UniProt Q8NN33); assay: as above; assay type: biochemical; conditions: pH 7.0, 0.1 M Tris-HCl, NADH co-substrate, room temperature; substrate inhibition
T2 construct: gene mdh; full length, C-terminal 6xHis (pET30a), expressed in E. coli BL21(DE3), Ni-NTA, ion exchange and size exclusion
T2 sequence (Q8NN33 whole entry): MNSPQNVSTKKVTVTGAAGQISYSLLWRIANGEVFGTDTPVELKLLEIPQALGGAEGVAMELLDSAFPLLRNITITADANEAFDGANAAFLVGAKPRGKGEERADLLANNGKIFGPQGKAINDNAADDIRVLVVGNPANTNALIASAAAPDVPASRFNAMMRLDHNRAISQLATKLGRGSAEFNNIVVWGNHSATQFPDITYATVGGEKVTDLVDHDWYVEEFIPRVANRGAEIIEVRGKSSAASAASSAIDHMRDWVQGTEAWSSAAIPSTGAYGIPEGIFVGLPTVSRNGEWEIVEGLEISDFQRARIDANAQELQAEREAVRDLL

- MsMDH / ki (MsMDH): 47.3 ± 22.1 µM
- CgMDH / ki (CgMDH): 500.0 ± 114.1 µM
Compound: O=C(O)CC(=O)C(=O)O [oxaloacetate]
